Tests used:
[1] = test system: regeneration of vision chromophore (11-cis-retinal); assay: regeneration of 11-cis-retinal in mouse eyes after gavage and light bleach, HPLC retinoid analysis; assay type: in vivo; settings: 50 mg/kg, tested in parallel with Ret-NH2
Procedure: Mice were gavaged with all-trains-Ret-NH2, exposed to intense light for 20 min, and then allowed to recover in the dark for 5 hours. The total amount of different forms of retinoids in all experiments was unchanged. […] For this experiment mice were treated with both 9-cis-retinol and all-trans-Ret-NH2, and bleached after 24 hours, and were allowed to recover for 5 hours in the dark. The presence of 9-cis-retinal was confirmed in treated animals (see peaks 4 and 4′ in FIG. 4A bottom panel, corresponding to syn- and anti-9-cis-retinal oximes, respectively). 11-cis-Retinal was not reduced and/or esterified after treatment with Ret-NH2. […] This supports the idea that Ret-NH2 is a specific inhibitor of the isomerization reaction.
A. Chromatographic separation of nonpolar retinoids from WT mouse eyes. Mice were gavaged with all-trans-Ret-NH2 24 hours prior to bleaching for 20 min at 150 cd·m^−2 W in the Ganzfeld chamber. Regeneration of 11-cis-retinal was allowed for 24 hours in the dark, and retinoids were extracted from the eye and separated by normal phase HPLC as described in Materials and Methods. The peaks were identified based on elution time and absorption spectra correspond to the following retinoids: 1, all-trans-retinyl esters; 2,2′, syn- and anti-11-cis-retinal oximes; 3, syn-all-trans-retinal oxime; 4,4′, syn- and anti-9-cis-retinal oximes; 5, all-trans-retinol. B. Changes of 11-cis-retinal oxime levels at increasing doses of all-trans-Ret-NH2 during 5 hours or 24 hours of dark adaptation. Square indicates the level of 11-cis-retinal oximes that was present in mice gavaged with vegetable oil without retinoids just after bleaching, and arrow indicates the increase of visual chromophore during 5 hours of dark adaptation. Triangles correspond to the level of 11-cis-retinal found in the mice gavaged with 50 mg/kg of 13-cis-RA. C and D. Single flash ERG responses of increasing intensity for all-trans-Ret-NH2 treated mice and control mice. Serial responses to increasing flash stimuli were obtained for all-trans-Ret-NH2 treated and control mice for selected intensities (C) and plotted as a function of a-wave and b-wave versus varying light intensities under dark-adapted conditions (D) before bleach and at 5 hours and 24 hours after bleach. The dark-adapted mice were bleached with intense constant illumination (150 cd·m^−2) for 20 min. […] SE bars are shown.
Chromatographic separation of nonpolar retinoids from WT mouse eyes. Mice were gavaged with 100 mg/kg of all-trans-Ret-NH2 24 hours prior to bleaching. Mice were next exposed to 500 cd m^−2 for 48 min bleaching in the Ganzfeld chamber. Regeneration of 11-cis-retinal was allowed for 24 hours in the dark, and retinoids were extracted from the eye and separated by normal phase HPLC as described in Materials and Methods. The peaks identified based on elution time and absorption spectra correspond to the following retinoids: 1, all-trans-retinyl esters; 2,2′, syn- and anti-1-cis-retinal oximes; 3,3′ syn- and anti-all-trans-retinal oximes; 4, all-trans-retinol.
Mice were gavaged with the solution of inhibitor in vegetable oil (control—non-treated, RPN—retinylpalmitamide, RAN—retinylacetamide, Ret—NH2-all-trans-retinylamine), kept in dark for 16 hours, then light stimulated and kept in dark for additional 5 hours before their eyes were analyzed.
Mouse retinoid extraction and analysis—Retinoid analysis was performed under dim red light as described previously (Maeda et al., J. Neurochem 85:944-956, 2003; Van Hooser et al., J Biol Chem 277:19173-82, 2002). Mice were gavaged with retinoids as described previously (Van Hooser et al., J Biol Chem 277:19173-82, 2002).

A2E formation = settings: in vivo; cited from earlier work
11-cis-RDH = settings: cited from earlier work
CYP26A1 = molecular target: T1, CYP26A1 (Homo sapiens, UniProt O43174); assay: oxidation in HEK-293 cells transfected with CYP26A1 cDNA; assay type: in vitro ADME
T1 construct: expressed in transfected cells; host or cells: HEK-293
T1 sequence (O43174 1-497): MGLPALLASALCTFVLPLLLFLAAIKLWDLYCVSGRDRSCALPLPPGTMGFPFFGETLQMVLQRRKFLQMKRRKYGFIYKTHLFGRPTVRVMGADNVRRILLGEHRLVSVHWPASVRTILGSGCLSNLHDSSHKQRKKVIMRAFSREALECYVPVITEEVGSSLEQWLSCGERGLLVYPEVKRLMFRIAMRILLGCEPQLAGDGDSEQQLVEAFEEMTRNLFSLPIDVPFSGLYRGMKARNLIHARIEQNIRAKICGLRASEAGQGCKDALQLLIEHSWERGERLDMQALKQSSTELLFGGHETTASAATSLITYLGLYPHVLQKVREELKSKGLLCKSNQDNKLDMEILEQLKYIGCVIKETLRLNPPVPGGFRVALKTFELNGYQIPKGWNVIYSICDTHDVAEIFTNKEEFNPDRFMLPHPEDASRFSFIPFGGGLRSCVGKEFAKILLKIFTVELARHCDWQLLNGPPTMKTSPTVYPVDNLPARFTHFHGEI
From the text: Next, the RA oxidation pathway was investigated. […] In addition to secretion, Ret-NH2 might be degraded first by deamination to all-trans-retinol/retinal, which was seen to increase in Ret-NH2 treated cells. […] These observations explain the long-lasting effect of RetNH2, as the amide is stored and hydrolyzed back to the free amine.

RAR = assay: F9-RARE-lacZ reporter cell line, β-galactosidase activity (DR5 elements); assay type: cell-based; settings: 24 hours treatment, micromolar concentrations
From the text: 13-cis-RA can isomerize to all-trans-RA and then to 9-cis-RA, both of which are potent ligands of the RA receptor (RAR). 9-cis-RA also binds and activates the retinoid X receptor (RXR). This contributes to the toxicity of the RAR and RXR ligands. It was investigated whether Ret-NH2 can activate these nuclear receptor using reporter-cells as described previously (20). A β-galactosidase activity assay was employed to examine if all-trans-RA, 9-cis-RA, and Ret-NH2 are agonists for these nuclear receptors.
F9-RARE-lacZ cells express endogenous RAR and RXR and were transfected with a construct of lacZ under the control of a minimal promoter and upstream DR5 elements (1). F9-RARE-lacZ cells were treated with different doses of all-trans-RA or Ret-NH2 for 24 hours after which the cells were harvested and the β-galactosidase activity was measured using the soluble substrate o-nitrophenyl β-D-galactopyranoside. The colorless substrate was cleaved by β-galactosidase to yellow colored o-nitrophenol, whose absorbance was measured at 420 nm using a spectrophotometer. The experiment was repeated twice with similar results. The RARE reporter cell line F9-RARE-lacZ (SIL15-RA) was a kind gift from Dr. Michael Wagner (SUNY Downstate Medical Center) and Dr. Peter McCaffery (University of Massachusetts Medical School). […]

## CC1=C(/C=C/C(C)=C/C=C/C(C)=C\C(=O)O)C(C)(C)CCC1 [13-cis-RA, 13-cis-retinoic acid]
[1]
  effect on chromophore recovery at 50 mg/kg: ineffective
A2E formation
  formation of A2E: blocked the formation of A2E
11-cis-RDH
  inhibition of 11-cis-RDH: inhibits 11-cis-RDH

## CC1=C(/C=C/C(C)=C/C=C/C(C)=C/C(=O)O)C(C)(C)CCC1 [retinoic acid, reference compound]
CYP26A1
  oxidation by CYP26A1: readily oxidized

## CC1=C(/C=C/C(C)=C/C=C/C(C)=C/C(=O)O)C(C)(C)CCC1 [all-trans-RA, All-trans-retinoic acid, reference compound]
RAR
  activation of transcription through RAR (DR5 RARE): activated transcription
